Experimental data from the NIST ThermoML archive (doi:10.1021/je700260f).

Conditions: Liquid, Vibrating tube method

FC(C(F)(F)F)C(F)(F)F [1,1,1,2,3,3,3-heptafluoropropane]
Conditions	mass density [kg/m3]
333.16 K, 17241 kPa	1375.9
333.16 K, 17263 kPa	1376.1
333.16 K, 17300 kPa	1376.3
333.16 K, 17322 kPa	1376.4
333.16 K, 17351 kPa	1376.5
333.16 K, 17370 kPa	1376.8
333.16 K, 17482 kPa	1377.4
333.16 K, 17509 kPa	1377.4
333.16 K, 17532 kPa	1377.7
333.16 K, 17563 kPa	1377.9
333.16 K, 17589 kPa	1378
333.16 K, 17619 kPa	1378.1
333.16 K, 17654 kPa	1378.4
333.16 K, 17680 kPa	1378.6
333.16 K, 17707 kPa	1378.7
333.16 K, 17741 kPa	1378.9
333.16 K, 17766 kPa	1379.1
333.16 K, 17788 kPa	1379.2
333.16 K, 17814 kPa	1379.3
333.16 K, 17848 kPa	1379.5
333.16 K, 17875 kPa	1379.6
333.16 K, 18144 kPa	1381.2
333.16 K, 18172 kPa	1381.4
333.16 K, 18199 kPa	1381.6
333.16 K, 18229 kPa	1381.8
333.16 K, 18263 kPa	1382
333.16 K, 18289 kPa	1382
333.16 K, 18321 kPa	1382.2
333.16 K, 18352 kPa	1382.4
333.16 K, 18378 kPa	1382.7
333.16 K, 18409 kPa	1382.9
333.16 K, 18440 kPa	1382.9
333.16 K, 18582 kPa	1383.6
333.16 K, 18605 kPa	1383.8
333.16 K, 18633 kPa	1384.2
333.16 K, 18653 kPa	1384.2
333.16 K, 18684 kPa	1384.3
333.16 K, 18715 kPa	1384.6
333.16 K, 18741 kPa	1384.6
333.16 K, 18777 kPa	1384.9
333.16 K, 18809 kPa	1385.1
333.16 K, 18836 kPa	1385.3
333.16 K, 18859 kPa	1385.4
333.16 K, 18889 kPa	1385.6
333.16 K, 18924 kPa	1385.8
333.16 K, 18951 kPa	1385.8
333.16 K, 18974 kPa	1385.9
333.16 K, 19009 kPa	1386.3
333.16 K, 19047 kPa	1386.4
333.16 K, 19071 kPa	1386.6
333.16 K, 19105 kPa	1386.7
333.16 K, 19128 kPa	1386.7
333.16 K, 19166 kPa	1387
333.16 K, 19192 kPa	1387.1
333.16 K, 19220 kPa	1387.4
333.16 K, 19248 kPa	1387.5
333.16 K, 19286 kPa	1387.9
333.16 K, 19310 kPa	1387.8
333.16 K, 19346 kPa	1388
333.16 K, 19381 kPa	1388.3
333.16 K, 19409 kPa	1388.4
333.16 K, 19445 kPa	1388.6
333.16 K, 19468 kPa	1388.8
333.16 K, 19716 kPa	1390.1
333.16 K, 19745 kPa	1390.3
333.16 K, 19776 kPa	1390.5
333.16 K, 19803 kPa	1390.5
333.16 K, 19831 kPa	1390.7
333.16 K, 19870 kPa	1391
333.16 K, 19894 kPa	1391
333.16 K, 19927 kPa	1391.2
333.16 K, 19959 kPa	1391.4
333.16 K, 19987 kPa	1391.6
333.16 K, 20022 kPa	1391.8
333.16 K, 20050 kPa	1391.9
333.16 K, 20077 kPa	1392
333.16 K, 20115 kPa	1392.3
333.16 K, 20146 kPa	1392.4
333.16 K, 20174 kPa	1392.5
333.16 K, 20207 kPa	1392.8
333.16 K, 20238 kPa	1392.9
333.16 K, 20266 kPa	1393.1
333.16 K, 20294 kPa	1393.3
333.16 K, 20328 kPa	1393.5
333.16 K, 20352 kPa	1393.5
333.16 K, 20393 kPa	1393.9
333.16 K, 20421 kPa	1393.8
333.16 K, 20453 kPa	1394.1
333.16 K, 20487 kPa	1394.3
333.16 K, 20512 kPa	1394.4
333.16 K, 20545 kPa	1394.6
333.16 K, 20579 kPa	1394.8
333.16 K, 20612 kPa	1395
333.16 K, 20640 kPa	1395.1
333.16 K, 20661 kPa	1395.4
333.16 K, 20682 kPa	1395.2
333.16 K, 20713 kPa	1395.4
333.16 K, 21425 kPa	1399.3
333.16 K, 21458 kPa	1399.4
333.16 K, 21479 kPa	1399.5
333.16 K, 21507 kPa	1399.6
333.16 K, 21537 kPa	1399.9
333.16 K, 21562 kPa	1399.9
333.16 K, 21595 kPa	1400.1
333.16 K, 21615 kPa	1400.2
333.16 K, 21797 kPa	1401.1
333.16 K, 21860 kPa	1401.5
333.16 K, 21957 kPa	1401.9
333.16 K, 21990 kPa	1402
333.16 K, 22016 kPa	1402.3
333.16 K, 22042 kPa	1402.3
333.16 K, 22082 kPa	1402.5
333.16 K, 22116 kPa	1402.8
333.16 K, 22154 kPa	1402.9
333.16 K, 22183 kPa	1403.1
333.16 K, 22220 kPa	1403.2
333.16 K, 22249 kPa	1403.6
333.16 K, 22279 kPa	1403.5
333.16 K, 22309 kPa	1403.8
333.16 K, 22335 kPa	1403.8
333.16 K, 22370 kPa	1404.1
333.16 K, 22404 kPa	1404.2
333.16 K, 22435 kPa	1404.3
333.16 K, 22473 kPa	1404.6
333.16 K, 22511 kPa	1404.8
333.16 K, 22537 kPa	1404.9
333.16 K, 22575 kPa	1405.2
333.16 K, 22605 kPa	1405.3
333.16 K, 22642 kPa	1405.4
333.16 K, 22672 kPa	1405.6
333.16 K, 22698 kPa	1405.8
333.16 K, 22736 kPa	1405.9
333.16 K, 22762 kPa	1406.1
333.16 K, 22980 kPa	1407.1
333.16 K, 23011 kPa	1407.2
333.16 K, 23037 kPa	1407.4
333.16 K, 23068 kPa	1407.5
333.16 K, 23104 kPa	1407.9
333.16 K, 23133 kPa	1407.8
333.16 K, 23162 kPa	1408
333.16 K, 23193 kPa	1408.1
333.16 K, 23228 kPa	1408.3
333.16 K, 23254 kPa	1408.5
333.16 K, 23297 kPa	1408.8
333.16 K, 23324 kPa	1408.8
333.16 K, 23358 kPa	1409
333.16 K, 23425 kPa	1409.3
333.16 K, 23453 kPa	1409.5
333.16 K, 23480 kPa	1409.5
333.16 K, 23515 kPa	1409.6
333.16 K, 23559 kPa	1410
333.16 K, 23594 kPa	1410.2
333.16 K, 23633 kPa	1410.3
333.16 K, 23662 kPa	1410.4
333.16 K, 23693 kPa	1410.4
333.16 K, 23728 kPa	1410.8
333.16 K, 23763 kPa	1411
333.16 K, 23795 kPa	1411
333.16 K, 23823 kPa	1411.3
333.16 K, 23890 kPa	1411.6
333.16 K, 23921 kPa	1411.7
333.16 K, 23957 kPa	1411.9
333.16 K, 23993 kPa	1412
333.16 K, 24020 kPa	1412.2
333.16 K, 24055 kPa	1412.4
333.16 K, 24089 kPa	1412.4
333.16 K, 24110 kPa	1412.7
333.16 K, 24140 kPa	1412.7
333.16 K, 24184 kPa	1413
333.16 K, 24206 kPa	1413.1
333.16 K, 24242 kPa	1413.2
333.16 K, 24269 kPa	1413.3
333.16 K, 24304 kPa	1413.6
333.16 K, 24333 kPa	1413.8
333.16 K, 24369 kPa	1413.7
333.16 K, 24396 kPa	1414
333.16 K, 24436 kPa	1414.2
333.16 K, 24468 kPa	1414.3
333.16 K, 24500 kPa	1414.4
333.16 K, 24531 kPa	1414.6
333.16 K, 24558 kPa	1414.7
333.16 K, 24594 kPa	1414.9
333.16 K, 24621 kPa	1415.1
333.16 K, 24657 kPa	1415.2
333.16 K, 24688 kPa	1415.3
333.16 K, 24720 kPa	1415.5
333.16 K, 24751 kPa	1415.7
333.16 K, 24782 kPa	1415.8
333.16 K, 24810 kPa	1415.9
333.16 K, 24838 kPa	1416
333.16 K, 24869 kPa	1416
333.16 K, 24910 kPa	1416.4
333.16 K, 24944 kPa	1416.5
333.16 K, 24980 kPa	1416.7
333.16 K, 25007 kPa	1416.8
333.16 K, 25039 kPa	1417.1
333.16 K, 25088 kPa	1417.1
333.16 K, 25111 kPa	1417.2
333.17 K, 17403 kPa	1376.8
333.17 K, 17429 kPa	1376.9
333.17 K, 17457 kPa	1377.4
333.17 K, 18467 kPa	1383.1
333.17 K, 18490 kPa	1383
333.17 K, 18517 kPa	1383.4
333.17 K, 18552 kPa	1383.6
333.17 K, 23382 kPa	1409
